Source: patent publication US20260097029A1, “Tetrahydroquinoline Compounds As Antitumor Agents” (priority 2022, published 2026)
Like-named read-outs stand apart in the source and are kept apart here.

Assays:
Type in all cases: cell-based
[1] = tested on: ALT-positive, telomerase-positive, ALT- and telomerase-positive, and normal cell lines; assay: Proliferation and cell death across panel of ALT-positive, telomerase-positive, ALT- and telomerase-positive and normal cell lines; conditions: for toxicity across cell lines (FIG. 5): 0-25 μM, different cell lines
Protocol: (§1) U2OS cells were treated with compounds 1, 2, 14, and 32 at concentrations of 0, 0.625, 1.25, 2.5, 5, 10, 15, 20 and 25 μM. Cell proliferation (confluency) and cytotoxicity (CellTox™ Green confluency) were assessed using the IncuCyte® live cell imaging platform. Cell death was calculated as a percentage of overall confluency, using CellTox™ Green confluency as a percentage of total cell confluence. Cell toxicity measurements were capped at the time point at which cells reached complete confluency. This was to account for cell death due to over-confluency of cells, rather than as a result of compounds' effects. The same experiments were also performed on a list of ALT-positive, telomerase-positive, ALT- and telomerase-positive, and normal cell lines. For the ALT-positive cell lines GM847, SK—N—FI, HuO9, Saos-2, CAL72, IIICF/c, and HS729 were employed. For the telomerase-positive cells HCT116, HeLa, HT1080, SK—N—Be2, and SK—N-AS, and KELLY were used. For the ALT-positive/telomerase-positive and mortal cell strains GM847 hTERT, MRC-5, and IMR-90 were employed.

[2] = biological target: T1, FANCM-BTR interaction (Homo sapiens, UniProt Q8IYD8+Q9H9A7); assay: Co-immunoprecipitation with RMI1 antibody in U2OS cells, western blot; conditions: treatment at the IC50 concentration, 72 hours
T1 construct: endogenous in cells; host or cells: U2OS
Protocol: To determine whether the compounds disrupt the FANCM-BTR interaction, co-immunoprecipitation experiments using the RMI1 antibody were performed in the presence and absence of compounds 1, 2, 14, 32, and the already reported compound PIP-199 treatments as well as the scambled, siFANCM and DMSO. This method provides information indicating the direct binding of proteins and is highly specific and simple to perform. U2OS cells were seeded at 50% confluency in 150 cm^2 flasks (BD Falcon). After 24 hours, cells were treated with scrambled, siFANCM and DMSO (0.3%, determined by the maximal DMSO concentration present in drugs) treatments, and 2, 14, 32, PIP-199 treatments at their IC50 concentrations. After 72 hours, cells were washed once with warm PBS, trypsinised for 5 minutes at 37° C., resuspended in media and counted using a Beckman Coulter cell counter. Cells were collected in pellets in Protein Lobind tubes (Eppendorf) by centrifugation at 200×g at 4° C. and supernatant was discarded. […]
The Dynabeads®-Ab-protein complex was washed three times using 200 μL ice cold Lysis Buffer B for each wash. […] The eluates were analysed by western blot and the data was quantitated using ImageJ software (National Institutes of Health). Eluates were expressed as a percentage of their respective lysates to show relative differences between treatments.

[3] = tested on: U2OS cells; assay: U2OS cell proliferation (confluency), IncuCyte live cell imaging; conditions: for IC50: confluency, read-out: IC50 (concentration of drug that inhibits 50% of cell growth)
Protocol: as §1

[4] = tested on: U2OS cells; assay: U2OS cytotoxicity / cell death (CellTox Green confluency), IncuCyte; conditions: Homo sapiens, read-out: EC50 (concentration that effectively causes 50% of cell death)
Protocol: as §1

Row | SMILES | toxicity across cell lines (FIG. 5) [1] | FANCM levels co-immunoprecipitated with RMI1 [2] | comparison of IC50 and EC50 values across the panel of cell lines ([1]; ALT-positive vs telomerase-positive, ALT/telomerase-positive and mortal cell lines) | IC50 ([3]; Homo sapiens, U2OS) [µM] | IC50 [3] [µM] | inhibition of U2OS cell viability ([3]; preliminary cell-based assays) | EC50 [4] [µM]
1 | CCN1CCCc2cc(CN(C3CCCC3)S(=O)(=O)c3cccc([N+](=O)[O-])c3)ccc21 [Compound 1, N-cyclopentyl-N-((1-ethyl-1,2,3,4-tetrahydroquinolin-6-yl)methyl)-3-nitrobenzenesulfon-amide] | concentration-dependent toxicity that is partly selective to the ALT cell lines |  |  |  |  |  | 
2 | CCN1CCCc2cc(CN(C3CCCC3)S(=O)(=O)c3ccc(CCOC)cc3)ccc21 [Compound 14, N-cyclopentyl-N-((1-ethyl-1,2,3,4-tetrahydroquinolin-6-yl)methyl)-4-(2-methoxy-ethyl)benzenesulfonamide] | concentration-dependent toxicity that is partly selective to the ALT cell lines |  |  |  |  |  | 
3 | CCN1CCCc2cc(CN(C3CCCC3)S(=O)(=O)c3ccc(NCc4c[nH]cn4)cc3)ccc21 [Compound 32, 4-(((1H-imidazol-4-yl)methyl)amino)-N-cyclopentyl-N-((1-ethyl-1,2,3,4-tetrahydroquinolin-6-yl)methyl)benzenesulfonamide] |  | decrease in FANCM levels | selective induction of ALT-cell death | 15.5 | 15.5 | shows inhibition of U2OS cell viability | 1.36
